Here are results for 15 compounds from patent publication EP0770601A1, “PROPENONE DERIVATIVES” (Kyowa Hakko Kogyo Co., Ltd., priority 1995, dated 1996).

The subject of experiment [1] is HeLa S3 cells. Nature of the experiment: HeLa S3 cell growth inhibition test (neutral red staining). It is filed as cell-based. The conditions noted are these: Homo sapiens, 72 hours culture with test compound, neutral red absorbance at 550 nm. The procedure:
Test Example 1: HeLa S3 Cell Growth Inhibition Test
Each 0.1 ml of HeLa S3 cells which had been prepared to 3 x 10^4 cells/ml using a medium consisted of MEM medium, 10% fetal bovine serum and 2 mM glutamine was distributed in each well of 96 well-microtiter plate. HeLa S3 was cultured at 37°C in a CO2 incubator for one night, each 0.05 ml of test compounds which had been appropriately diluted with the culture solution was added thereto and the mixture was cultured at 37°C for 72 hours in a CO2 incubator. Supernatant was removed, each 0.1 ml of the culture solution containing 0.02% neutral red was added to the residue, the mixture was incubated at 37°C for one hour in a CO2 incubator and the cells were stained. Supernatant was removed and the residue was washed once with physiological saline. Then, the pigment was extracted with 0.001 N hydrochloric acid/30% ethanol and the absorbance at 550 nm was measured by a microplatereader. A concentration of the test compound (IC50) at which the growth of cell is inhibited by 50% was calculated by comparing the absorbance of non-treated cells and that of cells treated with a predetermined concentration of the test compound.

Experiment [2] concerns P388 mouse leukemia. Nature of the experiment: Effect upon P388 ascites tumor (increased life span). The following applies: consecutive 5 days from 24 hours after implantation of the tumor, male CDF1 mice. The format is in vivo. Here is the method:
Test Example 2: Effect upon P388 Ascites Tumor […] The resultant suspension was administered once 24 hours after implantation of the tumor, or repeatedly for consecutive 5 days from 24 hours after implantation of the tumor. The average survival day (T) in a group was calculated from the survival days of the respective mice in the group administered with the test compound at each dose. On the other hand, the average survival day (C) of a group which was not administered was measured, and the increased life span [ILS (%)] was calculated according to the following equation: [(T - C)/C] x 100 (%) [formula]

pIC50: −log10 of the molar value.

What is called pIC50 is the IC50 on a negative log10 scale, so that one unit is a factor of ten. The compound `CCc1c(OC)cc(C(=O)C(C)=Cc2c[nH]c3ccccc23)cc1OC` [Compound 7, 1-(4-Ethyl-3-dimethoxyphenyl)-3-(indol-3-yl)-2-methyl-2-propen-1-one] had a pIC50 in experiment [1] of 7.19. In addition, the “ILS (%) [Dose (mg/kg)] five consec. admin.” value (shortened to “ILS (%)”) in experiment [2] (dose 25 mg/kg) is 40 ( 25) %.

In experiment [1], `COc1ccc(C(=O)C(C)=Cc2c[nH]c3ccccc23)c(OC)c1OC` [Compound 24, 3-(Indol-3-yl)-2-methyl-1-(2,3,4-trimethoxyphenyl)-2-propen-1-one] showed a negative logarithm of the IC50 (pIC50) of 7.66.

`CCCCOc1c(OC)cc(C(=O)C(C)=Cc2c[nH]c3cc(C)ccc23)cc1OC` [Compound 20, 1-(4-Buthoxy-3,5-dimethoxyphenyl)-2-methyl-3-(6-methylindol-3-yl)-2-propen-1-one]: the negative logarithm of the IC50 (pIC50) in experiment [1] was 8.21.

Consider `CCCOc1c(OC)cc(C(=O)C(C)=Cc2c[nH]c3cc(C)ccc23)cc1OC` [Compound 19, 1-(3,5-Dimethoxy-4-propoxyphenyl)-2-methyl-3-(6-methylindol-3-yl)-2-propen-1-one], for which the negative logarithm of the IC50 (pIC50) in experiment [1] is 8.28.

Consider `COc1cc(C(=O)C(C)=Cc2c[nH]c3cc(C)ccc23)cc2c1OCO2` [Compound 12, 1-(3-Methoxy-4,5-methylenedioxyphenyl)-2-methyl-3-(6-methylindol-3-yl)-2-propen-1-one], for which, in experiment [1], the negative logarithm of the IC50 (pIC50) is 8.64.

In experiment [1], `CCOc1c(OC)cc(C(=O)C(C)=Cc2c[nH]c3cc(C)ccc23)cc1OC` [Compound 11, 1-(4-Ethoxy-3,5-dimethoxyphenyl)-2-methyl-3-(6-methylindol-3-yl)-2-propen-1-one] gave a negative-log IC50 (pIC50) of 8.17.

In experiment [1], `CCOc1cc(C(=O)C(C)=Cc2c[nH]c3ccccc23)cc(OC)c1OC` [Compound 9, 1-(5-Ethoxy-3,4-dimethoxyphenyl)-3-(indol-3-yl)-2-methyl-2-propen-1-one] gave a pIC50 of 8.49. This pIC50 lies 0.32 log units higher than the previous one.

As for `CCOc1cc(C(=O)C(C)=Cc2c[nH]c3ccccc23)cc(OCC)c1OCC` [Compound 4, 3-(Indol-3-yl)-2-methyl-1-(3,4,5-triethoxyphenyl)-2-propen-1-one], the pIC50 in experiment [1] is 7.66.

On to `COc1cc(C(=O)C(C)=Cc2c[nH]c3cc(C)ccc23)cc(OC)c1OCC(C)C` [Compound 15, 1-(4-Isobutyloxy-3,5-dimethoxyphenyl)-2-methyl-3-(6-methylindol-3-yl)-2-methyl-2-propen-1-one], for which, in experiment [1], the pIC50 was 7.74.

In experiment [1], `CCOc1c(OC)cc(C(=O)C(C)=Cc2c[nH]c3cc(Cl)ccc23)cc1OC` [Compound 18, 3-(6-Chloroindol-3-yl)-1-(4-ethoxy-3,5-dimethoxyphenyl)-2-methyl-2-propen-1-one] showed a negative logarithm of the IC50 (pIC50) of 8.20.

Take `CCOc1c(OC)cc(C(=O)C(C)=Cc2c[nH]c3ccccc23)cc1OC` [Compound 5, 1-(4-Ethoxy-3,5-dimethoxyphenyl)-3-(indol-3-yl)-2-methyl-2-propen-1-one]: the pIC50 in experiment [1] was 8.60. Moreover, the “ILS (%)” value in experiment [2] (dose 3.1 mg/kg) was 41 ( 3.1) %.

Turning to `COc1cc(C(=O)C(C)=Cc2c[nH]c3ccccc23)cc(OC)c1OCC(C)C` [Compound 6, 3-(Indol-3-yl)-1-(4-isobutyloxy-3,5-dimethoxyphenyl)-2-methyl-2-propen-1-one], in experiment [1], the negative logarithm of the IC50 (pIC50) was 8.03. Moreover, the “ILS (%)” value in experiment [2] (dose 3.1 mg/kg) is reported as 43 ( 3.1) %.

With `CCOc1c(OC)cc(C(=O)C(C)=Cc2c[nH]c3cc(CC)ccc23)cc1OC` [Compound 16, 1-(4-Ethoxy-3,5-dimethoxyphenyl)-3-(6-ethylindol-3-yl)-2-methyl-2-propen-1-one], the negative-log IC50 (pIC50) in experiment [1] is 8.21.

In turn, `COc1cc(C(=O)C(C)=Cc2c[nH]c3ccccc23)cc(Br)c1OC` [Compound 10, 1-(3-Bromo-4-dimethoxyphenyl)-3-(indol-3-yl)-2-methyl-2-propen-1-one] showed a negative logarithm of the IC50 (pIC50) in experiment [1] of 8.18.

Take `COc1cc(C(=O)C(C)=Cc2c[nH]c3ccccc23)cc2c1OCO2` [Compound 8, 3-(Indol-3-yl)-1-(3-methoxy-4,5-methylenedioxyphenyl)-2-methyl-2-propen-1-one]: in experiment [1], the pIC50 was 8.21. Besides, the “ILS (%)” value in experiment [2] (dose 6.3 mg/kg) is given as 50 ( 6.3) %.
